Experimental data published in patent publication US11253517B2, “Small molecule regulators of steroid receptor coactivators and methods of use thereof” (BAYLOR COLLEGE OF MEDICINE, priority 2016, dated 2022).

What was measured:
panel of 24 kinases = test: Kinase-Glo Luminescent Kinase Assay, panel of 24 kinases; type: biochemical; conditions: 1000 nM, 50 nM and 5 nM, versus DMSO vehicle control
Protocol: (§1) SI-12 was also tested for its ability to disrupt kinase activity. The effects of the compound were tested on a panel of 24 kinases using a Kinase-Glo Luminescent Kinase Assay system (Promega; Madison, Wis.). SI-12 was tested, at concentrations of 1000 nM, 50 nM, and 5 nM, for its ability to interfere with recombinant kinases in the assay system. The amount of ATP to ADP conversion in the presence of SI-12 was compared to a DMSO vehicle control. The values shown in Table 3 represent the percentage of kinase activity compared to a DMSO vehicle control.
(§2) In Table 3, “−” represents less than 20% inhibition; “+” represents from 20% to 40% inhibition; “++” represents from 40% to 60% inhibition; and “+++” represents greater than 60% inhibition.

BT-474 cells = test: IC50 in BT-474 cells, 72 hours incubation; type: cell-based
Protocol: (§3) The compounds described herein were synthesized as described in Example 1. The IC50 values were measured in MDA-MB-468, BT-474, and MCF-7 cells by incubating a series of concentrations of the corresponding compounds for 72 hours.
(§4) In Tables 1 and 2, “−” represents IC50 or EC50 values greater than 10 μM; “+” represents IC50 or EC50 values from greater than 1 μM to 10 μM; “++” represents IC50 or EC50 values from 0.1 μM to 1 μM; and “+++” represents IC50 or EC50 values less than 0.1 μM.

MDA-MB-231 tumor cells = test: MDA-MB-231 xenograft model (luciferase imaging); type: in vivo, Nude mice; conditions: 4 mg/kg 5 times per week, five-week period
Protocol: The quantitated luciferase activity is shown in the graph in FIG. 4.
SI-12 was evaluated in a MDA-MB-231 model where the MDA-MB-231 tumor cells were stably transfected with a luciferase expression vector. Nude mice had 2.5×10^5 tumor cells implanted into cleared mammary fat pads of nude mice. The progression of tumors in control and SI-12 treated animals (4 mg/kg 5 times per week) was followed by luciferase imaging of the mice over a five-week period.

MAPKAPK2 = target: T1, MAPKAPK2 (Homo sapiens, UniProt P49137); test: Kinase-Glo Luminescent Kinase Assay; type: biochemical
T1 construct: purchased Promega
Protocol: as §1, §2

PAK1/CDC42 = target: T2, PAK1/CDC42 (Homo sapiens, UniProt Q13153); test: Kinase-Glo Luminescent Kinase Assay; type: biochemical
T2 construct: purchased Promega
Protocol: as §1, §2

FGFR1 = target: T3, FGFR1 (Homo sapiens, UniProt P11362); test: Kinase-Glo Luminescent Kinase Assay; type: biochemical
T3 construct: purchased Promega
Protocol: as §1, §2

CK1a 1 = target: T4, CK1a 1 (Homo sapiens, UniProt P48729); test: Kinase-Glo Luminescent Kinase Assay; type: biochemical
T4 construct: purchased Promega
Protocol: as §1, §2

CHK1 = target: T5, CHK1 (Homo sapiens, UniProt O14757); test: Kinase-Glo Luminescent Kinase Assay; type: biochemical
T5 construct: purchased Promega
T5 sequence (O14757 1-476): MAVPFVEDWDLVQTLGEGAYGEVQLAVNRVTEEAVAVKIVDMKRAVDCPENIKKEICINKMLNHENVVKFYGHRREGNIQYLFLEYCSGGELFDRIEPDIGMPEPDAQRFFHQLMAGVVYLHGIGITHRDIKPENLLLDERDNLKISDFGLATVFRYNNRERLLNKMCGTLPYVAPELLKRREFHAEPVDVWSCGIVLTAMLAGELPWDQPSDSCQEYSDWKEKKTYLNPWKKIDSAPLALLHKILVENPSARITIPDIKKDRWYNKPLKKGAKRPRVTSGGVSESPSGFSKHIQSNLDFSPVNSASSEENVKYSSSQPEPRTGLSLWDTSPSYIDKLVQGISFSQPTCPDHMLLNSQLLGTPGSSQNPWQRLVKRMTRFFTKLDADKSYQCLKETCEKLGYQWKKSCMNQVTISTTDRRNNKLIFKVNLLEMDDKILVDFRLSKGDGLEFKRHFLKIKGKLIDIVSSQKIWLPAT
Protocol: as §1, §2

AMPK A1 /B1/G2 = target: T6, AMPK A1 /B1/G2 (Homo sapiens, UniProt Q13131); test: Kinase-Glo Luminescent Kinase Assay; type: biochemical
T6 construct: purchased Promega
Protocol: as §1, §2

DAPK1 = target: T7, DAPK1 (Homo sapiens, UniProt P53355); test: Kinase-Glo Luminescent Kinase Assay; type: biochemical
T7 construct: purchased Promega
Protocol: as §1, §2

SYK = target: T8, SYK (Homo sapiens, UniProt P43405); test: Kinase-Glo Luminescent Kinase Assay; type: biochemical
T8 construct: purchased Promega
Protocol: as §1, §2

MCF-7 cells = test: IC50 in MCF-7 cells, 72 hours incubation; type: cell-based
Protocol: as §3, §4

[1] = test system: Panc-1-Luc pancreatic tumor; test: Orthotopic pancreatic cancer mouse model (Panc-1-Luc); type: in vivo, SCID mice
Protocol: FIG. 3, Panels A-E show the therapeutic efficacy of SI-12 in an orthotopic pancreatic cancer mouse model. […] Data represent mean±SEM. *, P<0.05, **, P<0.01 by student t-test.
SI-12 was tested in pancreatic, lung, brain, and melanoma cancers. A representative example for pancreatic tumor treatment is described below. Panc-1 cells stably expressing firefly luciferase cells (Panc-1-Luc, 0.5×10^6 cells per mouse) were injected into the tail of pancreas of SCID mice (6-7 weeks). The mice were randomized into two groups based on luciferase imaging (n=8 per group). Eight days after tumor inoculation, the two groups were administered SI-12 (10 mg/kg, i.p. injection, once daily) or an equal volume of vehicle control five times per week. Tumor growth and systemic toxicity were monitored based on luciferase imaging and body weight weekly. The mice were sacrificed after eight weeks of treatment. […] At the end of the experiment, tumors were harvested and weighed. The average tumor weight in SI-12 treated mice was ˜30% of the vehicle treated counterparts (FIG. 3D).
To test whether SI-12 causes SRC-3 down-regulation in vivo, the SRC-3 levels in tumor tissues were measured by immunohistochemistry (IHC). Multiple tumor tissues (N>3) collected from both the control group and the SI-12 treated group were processed and immunohistochemically stained with an anti-SRC-3 antibody or an anti-Ki-67 antibody. […] Ki-67, a cell proliferation marker, was also immunochemically analyzed.

[2] = 10 mg/kg i.p. once daily, five times per week, eight weeks

T2 sequence (Q13153 whole entry): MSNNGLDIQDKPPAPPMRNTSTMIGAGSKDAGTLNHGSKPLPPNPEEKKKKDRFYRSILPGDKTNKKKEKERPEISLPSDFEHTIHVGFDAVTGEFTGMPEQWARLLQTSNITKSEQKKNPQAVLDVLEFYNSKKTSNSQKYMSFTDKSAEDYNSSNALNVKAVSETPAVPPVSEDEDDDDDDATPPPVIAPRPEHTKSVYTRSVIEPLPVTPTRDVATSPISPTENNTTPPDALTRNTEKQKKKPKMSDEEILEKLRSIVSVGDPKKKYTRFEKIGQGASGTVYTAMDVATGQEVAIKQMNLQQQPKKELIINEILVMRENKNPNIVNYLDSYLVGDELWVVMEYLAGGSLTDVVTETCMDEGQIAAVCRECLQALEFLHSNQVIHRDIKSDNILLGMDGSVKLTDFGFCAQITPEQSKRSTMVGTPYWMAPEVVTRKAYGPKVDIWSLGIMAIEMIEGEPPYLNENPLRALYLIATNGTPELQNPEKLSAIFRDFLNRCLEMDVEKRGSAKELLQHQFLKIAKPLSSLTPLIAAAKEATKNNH
T3 sequence (P11362 22-822): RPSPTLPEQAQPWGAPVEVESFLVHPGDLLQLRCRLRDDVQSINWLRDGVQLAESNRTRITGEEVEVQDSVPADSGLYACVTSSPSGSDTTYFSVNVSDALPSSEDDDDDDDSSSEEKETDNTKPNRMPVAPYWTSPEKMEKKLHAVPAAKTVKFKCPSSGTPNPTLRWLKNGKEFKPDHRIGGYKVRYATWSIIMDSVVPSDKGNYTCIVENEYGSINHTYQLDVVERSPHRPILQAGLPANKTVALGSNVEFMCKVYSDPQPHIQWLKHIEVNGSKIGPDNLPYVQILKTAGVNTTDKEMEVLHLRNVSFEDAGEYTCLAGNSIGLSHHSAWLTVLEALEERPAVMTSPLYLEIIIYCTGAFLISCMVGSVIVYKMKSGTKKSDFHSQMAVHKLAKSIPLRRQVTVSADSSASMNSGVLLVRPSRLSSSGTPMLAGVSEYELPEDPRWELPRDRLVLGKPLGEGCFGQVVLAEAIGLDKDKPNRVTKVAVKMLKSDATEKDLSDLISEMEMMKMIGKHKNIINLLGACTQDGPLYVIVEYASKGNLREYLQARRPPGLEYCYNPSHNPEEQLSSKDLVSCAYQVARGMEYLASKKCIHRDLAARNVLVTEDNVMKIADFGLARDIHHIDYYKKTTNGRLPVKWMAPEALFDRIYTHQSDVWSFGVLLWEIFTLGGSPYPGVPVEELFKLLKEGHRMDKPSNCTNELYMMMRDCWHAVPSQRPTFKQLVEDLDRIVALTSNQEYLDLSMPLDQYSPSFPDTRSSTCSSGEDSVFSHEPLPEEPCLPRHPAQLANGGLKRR
T4 sequence (P48729 whole entry): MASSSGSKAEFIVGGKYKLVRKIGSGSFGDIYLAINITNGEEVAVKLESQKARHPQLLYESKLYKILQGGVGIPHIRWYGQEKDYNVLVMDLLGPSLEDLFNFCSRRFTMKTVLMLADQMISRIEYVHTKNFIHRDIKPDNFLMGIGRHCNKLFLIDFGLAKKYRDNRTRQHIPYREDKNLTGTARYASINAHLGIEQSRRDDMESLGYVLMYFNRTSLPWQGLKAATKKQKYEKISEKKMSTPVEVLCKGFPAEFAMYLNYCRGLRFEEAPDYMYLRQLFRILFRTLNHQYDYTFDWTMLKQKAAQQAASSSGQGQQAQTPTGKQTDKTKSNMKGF
T1 sequence (P49137 whole entry): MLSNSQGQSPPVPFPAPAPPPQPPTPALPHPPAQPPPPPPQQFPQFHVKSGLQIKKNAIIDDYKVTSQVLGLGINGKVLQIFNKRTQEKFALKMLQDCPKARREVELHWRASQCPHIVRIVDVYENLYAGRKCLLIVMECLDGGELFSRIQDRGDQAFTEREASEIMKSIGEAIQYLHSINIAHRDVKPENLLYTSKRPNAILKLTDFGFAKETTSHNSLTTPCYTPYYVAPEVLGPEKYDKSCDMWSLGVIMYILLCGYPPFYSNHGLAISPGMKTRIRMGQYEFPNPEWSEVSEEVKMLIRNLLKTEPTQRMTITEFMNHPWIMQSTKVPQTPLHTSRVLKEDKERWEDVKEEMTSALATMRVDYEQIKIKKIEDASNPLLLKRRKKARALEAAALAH
T6 sequence (Q13131 whole entry): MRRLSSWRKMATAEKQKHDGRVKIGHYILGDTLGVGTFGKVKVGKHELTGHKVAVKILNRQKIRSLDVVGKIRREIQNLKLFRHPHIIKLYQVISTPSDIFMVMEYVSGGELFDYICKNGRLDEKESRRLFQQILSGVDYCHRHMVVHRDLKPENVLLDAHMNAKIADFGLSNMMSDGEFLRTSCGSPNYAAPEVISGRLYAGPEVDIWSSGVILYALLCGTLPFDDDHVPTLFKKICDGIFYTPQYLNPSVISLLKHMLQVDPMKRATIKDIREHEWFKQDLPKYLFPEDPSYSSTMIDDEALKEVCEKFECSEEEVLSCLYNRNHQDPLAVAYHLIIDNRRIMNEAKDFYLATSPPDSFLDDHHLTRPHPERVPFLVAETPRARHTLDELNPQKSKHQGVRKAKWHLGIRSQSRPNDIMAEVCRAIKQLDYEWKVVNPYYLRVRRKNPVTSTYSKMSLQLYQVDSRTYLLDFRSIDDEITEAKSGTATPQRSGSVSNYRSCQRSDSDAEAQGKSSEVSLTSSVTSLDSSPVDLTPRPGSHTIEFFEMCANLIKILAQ
T6 sequence (Q9Y478 whole entry partner): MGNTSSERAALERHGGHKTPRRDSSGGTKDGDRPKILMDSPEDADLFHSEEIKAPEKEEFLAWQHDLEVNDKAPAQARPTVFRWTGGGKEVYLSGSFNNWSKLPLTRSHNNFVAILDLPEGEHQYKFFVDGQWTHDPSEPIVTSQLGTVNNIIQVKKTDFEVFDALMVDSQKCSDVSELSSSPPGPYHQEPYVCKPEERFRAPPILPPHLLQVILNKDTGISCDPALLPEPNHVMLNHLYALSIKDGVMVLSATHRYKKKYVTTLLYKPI
T6 sequence (Q9UGJ0 whole entry partner): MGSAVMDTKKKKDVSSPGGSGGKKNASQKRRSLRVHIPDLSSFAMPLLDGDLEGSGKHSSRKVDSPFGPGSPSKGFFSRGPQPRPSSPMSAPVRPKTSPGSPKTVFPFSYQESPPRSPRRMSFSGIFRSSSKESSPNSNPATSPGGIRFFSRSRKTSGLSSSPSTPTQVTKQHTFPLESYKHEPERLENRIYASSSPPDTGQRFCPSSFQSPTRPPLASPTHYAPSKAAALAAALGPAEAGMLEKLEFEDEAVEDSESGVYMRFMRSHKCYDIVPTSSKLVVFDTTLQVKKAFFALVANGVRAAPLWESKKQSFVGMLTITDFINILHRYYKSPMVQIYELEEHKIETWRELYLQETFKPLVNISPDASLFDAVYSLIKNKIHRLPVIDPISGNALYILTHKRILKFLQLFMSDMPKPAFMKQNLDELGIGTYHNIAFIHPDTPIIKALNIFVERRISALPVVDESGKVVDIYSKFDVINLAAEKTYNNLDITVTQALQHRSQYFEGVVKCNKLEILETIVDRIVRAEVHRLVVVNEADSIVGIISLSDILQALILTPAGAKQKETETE
T7 sequence (P53355 whole entry): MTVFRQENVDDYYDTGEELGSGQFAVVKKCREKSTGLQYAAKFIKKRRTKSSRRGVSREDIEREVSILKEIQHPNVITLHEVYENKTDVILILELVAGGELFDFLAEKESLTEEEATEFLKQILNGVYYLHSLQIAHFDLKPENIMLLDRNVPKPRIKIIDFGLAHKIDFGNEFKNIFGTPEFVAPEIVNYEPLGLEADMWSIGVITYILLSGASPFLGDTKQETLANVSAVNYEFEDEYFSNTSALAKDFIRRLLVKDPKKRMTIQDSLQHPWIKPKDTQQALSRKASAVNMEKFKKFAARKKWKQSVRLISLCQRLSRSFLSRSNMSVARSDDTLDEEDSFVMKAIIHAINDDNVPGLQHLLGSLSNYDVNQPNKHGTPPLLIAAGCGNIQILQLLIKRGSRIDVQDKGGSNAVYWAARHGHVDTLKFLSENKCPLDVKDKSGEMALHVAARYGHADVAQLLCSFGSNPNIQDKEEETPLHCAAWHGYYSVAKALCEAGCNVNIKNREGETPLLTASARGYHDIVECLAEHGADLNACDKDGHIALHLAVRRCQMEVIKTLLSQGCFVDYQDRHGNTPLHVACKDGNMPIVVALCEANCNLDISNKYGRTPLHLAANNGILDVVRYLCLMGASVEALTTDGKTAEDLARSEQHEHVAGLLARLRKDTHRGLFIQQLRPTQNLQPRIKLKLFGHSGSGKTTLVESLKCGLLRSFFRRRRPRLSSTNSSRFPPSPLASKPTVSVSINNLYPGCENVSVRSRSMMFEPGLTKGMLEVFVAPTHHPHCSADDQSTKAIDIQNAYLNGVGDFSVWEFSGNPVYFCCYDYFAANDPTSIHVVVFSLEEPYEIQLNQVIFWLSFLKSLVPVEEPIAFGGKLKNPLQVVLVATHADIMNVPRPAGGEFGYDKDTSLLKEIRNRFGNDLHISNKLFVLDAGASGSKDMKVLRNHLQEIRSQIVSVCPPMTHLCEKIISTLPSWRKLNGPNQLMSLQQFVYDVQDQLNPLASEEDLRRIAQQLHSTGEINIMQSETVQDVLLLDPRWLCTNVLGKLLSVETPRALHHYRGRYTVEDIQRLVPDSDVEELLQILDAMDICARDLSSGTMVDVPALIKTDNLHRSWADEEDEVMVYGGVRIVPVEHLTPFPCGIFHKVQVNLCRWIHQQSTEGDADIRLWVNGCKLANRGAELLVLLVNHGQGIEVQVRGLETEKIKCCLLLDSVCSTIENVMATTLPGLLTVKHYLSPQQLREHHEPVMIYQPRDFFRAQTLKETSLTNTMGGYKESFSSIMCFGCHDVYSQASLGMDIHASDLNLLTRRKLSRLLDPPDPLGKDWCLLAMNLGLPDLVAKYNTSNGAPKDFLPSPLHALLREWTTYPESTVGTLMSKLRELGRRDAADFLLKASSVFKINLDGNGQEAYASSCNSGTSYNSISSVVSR

## CC(=NNc1nc2cc(F)c(F)cc2n1C)c1ccc(F)cn1 [SI-12]
Panel of 24 kinases
  effects on kinase activity, panel overall: minimal effects on kinase activity
BT-474 cells
  IC50: < 100 nM
MDA-MB-231 tumor cells
  luciferase expression at primary tumor and lung metastasis (whole body imaging): reduced luciferase expression at both the sites of the primary tumor and of MDA-MB-231 metastasis to the lung
  tumor growth in MDA-MB-231 xenograft model: can inhibit tumor growth
MAPKAPK2; 5 nM
  MAPKAPK2 kinase inhibition: − (less than 20% inhibition)
MAPKAPK2; 50 nM
  MAPKAPK2 kinase inhibition: − (less than 20% inhibition)
MAPKAPK2; 1000 nM
  MAPKAPK2 kinase inhibition: − (less than 20% inhibition)
PAK1/CDC42; 5 nM
  PAK1/CDC42 kinase inhibition: − (less than 20% inhibition)
PAK1/CDC42; 50 nM
  PAK1/CDC42 kinase inhibition: − (less than 20% inhibition)
PAK1/CDC42; 1000 nM
  PAK1/CDC42 kinase inhibition: − (less than 20% inhibition)
FGFR1; 5 nM
  FGFR1 kinase inhibition: + (from 20% to 40% inhibition)
FGFR1; 50 nM
  FGFR1 kinase inhibition: − (less than 20% inhibition)
FGFR1; 1000 nM
  FGFR1 kinase inhibition: − (less than 20% inhibition)
CK1a 1; 5 nM
  CK1a 1 kinase inhibition: − (less than 20% inhibition)
CK1a 1; 50 nM
  CK1a 1 kinase inhibition: − (less than 20% inhibition)
CK1a 1; 1000 nM
  CK1a 1 kinase inhibition: − (less than 20% inhibition)
CHK1; 5 nM
  CHK1 kinase inhibition: − (less than 20% inhibition)
CHK1; 50 nM
  CHK1 kinase inhibition: − (less than 20% inhibition)
CHK1; 1000 nM
  CHK1 kinase inhibition: − (less than 20% inhibition)
AMPK A1 /B1/G2; 5 nM
  AMPK A1 /B1/G2 kinase inhibition: − (less than 20% inhibition)
AMPK A1 /B1/G2; 50 nM
  AMPK A1 /B1/G2 kinase inhibition: − (less than 20% inhibition)
AMPK A1 /B1/G2; 1000 nM
  AMPK A1 /B1/G2 kinase inhibition: − (less than 20% inhibition)
DAPK1; 5 nM
  DAPK1 kinase inhibition: − (less than 20% inhibition)
DAPK1; 50 nM
  DAPK1 kinase inhibition: − (less than 20% inhibition)
DAPK1; 1000 nM
  DAPK1 kinase inhibition: − (less than 20% inhibition)
SYK; 5 nM
  SYK kinase inhibition: − (less than 20% inhibition)
SYK; 50 nM
  SYK kinase inhibition: − (less than 20% inhibition)
SYK; 1000 nM
  SYK kinase inhibition: − (less than 20% inhibition)
MCF-7 cells
  IC50: < 100 nM
[1]; [2]
  body weight loss: minimal body weight loss
  pancreatic tumor growth (luciferase imaging): significantly delayed pancreatic tumor growth
[1]; end of experiment, after eight weeks of treatment, 10 mg/kg i.p.
  average tumor weight relative to vehicle treated counterparts: ~30%
[1]; versus control group, anti-Ki-67 antibody
  Ki-67 positive cells in tumor tissues (IHC): dramatically fewer Ki-67 positive cells
[1]; versus vehicle treated control group, anti-SRC-3 antibody
  SRC-3 levels in tumor tissues (IHC): significantly lower than the vehicle treated control group
